From patent US5246931A, “Carbocyclic nucleoside analogs” (priority 1991, dated 1993)
≈ marks a conversion by molar mass, not a printed value. Where “and” joins values, the source holds several entries; their conditions need not be identical. Equal entries are not always repeated. Blank lines part the entries; values can stand above or below the compound they belong to.

What was measured:
[1] = tested on: Herpes simplex type 1 (HSV-1) strain E-377; test: CPE inhibition assay, HSV-1 (E-377) in Vero cells; conditions: for VR (virus rating): HSV-1 (E-377), Vero
[2] = tested on: Herpes simplex type 2 (HSV-2) strain MS; test: CPE inhibition assay, HSV-2 (MS) in Vero cells
[3] = tested on: duck hepatitis B virus (DHBV); test: Efficacy against hepatitis B virus in vivo in ducklings; parameters: species or system Pekino ducklings; conditions: for Serum DHBV DNA: after treatment (days 10-17)
Protocol: F. Evaluation of Compounds for Efficacy Against Hepatitis B Virus In Vivo in Ducklings
The test method is an adaptation of the method of Smee, et al., Antimicrob. Agents Chemotherap. 27 277 (1985). The serum level of duck hepatitis B virus (DHBV) DNA was monitored in 6 infected Pekino ducklings from age 6 days to age 27 days. Four ducklings were treated with 70 mg/kg/day IP, b.i.d. of the test compound as a 3 mg/ml solution in 0.9% aqueous NaCl on days 10-17. Two control ducklings were treated with 23 ml/kg/day IP, b.i.d. of 0.9% aqueous NaCl on days 10-17. The level of DHBV DNA in the duckling serum was measured daily.

HSV-1 (E-377) = test: Plaque reduction in Vero cells, HSV-1 (E-377); type: cell-based, Herpes simplex virus type 1; conditions: Human alphaherpesvirus 1, read-out: MIC50
Protocol: (§1) A-2. Alternate Method for Evaluation of Compounds for Activity Against Herpes Simplex Virus Types 1 and 2
(§2) Confluent Vero cell monolayers were infected with a dilution of stock virus which yielded approximately 100 plaque forming units (pfu) per well. After the adsorption period, the infected cell monolayers were treated in duplicate with serial dilutions of the test compound. Duplicate cell controls containing medium alone and virus controls containing medium and virus were run simultaneously with the test compound. After incubation for 3 to 4 days to allow for the development of visible, discrete plaques in the untreated, virus infected control cultures, the monolayers were fixed with formaldehyde and stained with crystal violet. Plaques visible to the unaided eye were counted and the mean number of plaques in the duplicate wells for each compound concentration tested and for the untreated, virus infected controls were determined. The concentration of test compound which reduced by 50% the mean number of plaques in the untreated, virus infected control cultures was then determined and expressed as the ID50.

HSV-2 = test: Plaque reduction in Vero cells, HSV-2; type: cell-based, Herpes simplex virus type 2; conditions: Human alphaherpesvirus 2, HSV-2, Vero, read-out: MIC50
Protocol: as §1, §2

[4] = Toxicity in uninfected mice; type: in vivo, Swiss mice (CD-1); conditions: subcutaneous once daily, 7 doses
Protocol: (§3) Four-week-old female outbred Swiss mice (CD-1, VAF+, Charles River Labs) were housed 5 per Microisolator® cage. Feed and water were supplied ad libitum. Fifteen mice were randomly assigned to each of the following treatment groups:
(§4) Test compounds were diluted in 0.4% caboxymethylcellulose (CMC) prepared in phosphate buffered saline (PBS) at aconcentrations consistent with dosing at 0.1 ml per 10 g of body weight. Compounds were administered subcutaneously once daily for a total of 7 doses. Five mice in each treatment group served as uninfected toxicity controls. The remaining ten mice in each group were challenged intraperitoneally with an LD90 dose of the twelfth in vivo passage of Herpesvirus 1 (strain 123). Virus challenge was administered two hours after the first dose of compound was given. Mortality was monitored daily for 21 days. The mortality rates, average day of death, geometric mean time to death and virus rating were calculated for each treatment group.

[5] = tested on: human foreskin fibroblasts (HFF); test: MTT cytotoxicity assay in human foreskin fibroblasts
HSV-1 (123) = test: Plaque reduction in Vero cells, HSV-1 (123); type: cell-based, Herpes simplex virus type 1; conditions: Human alphaherpesvirus 1, read-out: MIC50
Protocol: as §1, §2

[6] = tested on: Varicella-Zoster Virus (clinical isolate DM625); test: microbe, parasite or virus in culture; type: cell-based; conditions: Human alphaherpesvirus 3, Fibroblast, 120 h; read-out: MIC50
[7] = tested on: Herpesvirus 1 (strain 123); test: In vivo activity against Herpesvirus 1 in mice (intraperitoneal challenge); parameters: species or system Swiss mice (CD-1)
Protocol: E. Evaluation of Compounds for In Vivo Activity Against Herpesvirus 1 in Mice
as §3, §4

[8] = tested on: Herpes simplex type 2 (HSV-2) strain MS; conditions: monkey, vero cells
[9] = tested on: African green monkey kidney (Vero) cells; test: Drug cytotoxicity in Vero host cells (CPE assay); conditions: Vero
[10] = Drug cytotoxicity in Vero host cells (CPE assay); conditions: monkey, vero cells
[11] = tested on: Herpes simplex type 1 (HSV-1) strain E-377; conditions: monkey, vero cells

SMILES: Nc1nc(Cl)c2ncn(C3CC(CO)C3CO)c2n1 (stereo not shown) [Example 1H, 3-(2'-Amino-6'-chloro-9'H-purin-9'-yl)-1,2-bis(hydroxymethyl)cyclobutane]
VR (virus rating) [1]: 1.4 | VR (virus rating) [2]: 0.6 and 0.5

SMILES: Nc1nc2c(ncn2C2CC(CO)C2CO)c(=O)[nH]1 (stereo not shown) [Example 1I, 9-(2',3'-Bis(hydroxymethyl)cyclobutyl)guanine]
Deaths of treated ducks ([3]; DHBV-infected ducklings, 70 mg/kg/day IP b.i.d. on days 10-17): ducks 3 and 4 died on day 18 and day 26, respectively | Serum DHBV DNA ([3]; age 18 days, lines = ducks 1-4 in order): < 1 ng/mL | Serum DHBV DNA ([3]; age 19 days, lines = ducks 1, 2, 4): < 1 ng/mL | Serum DHBV DNA ([3]; age 20 days, lines = ducks 1, 2, 4): < 1 ng/mL | Serum DHBV DNA ([3]; age 21 days, lines = ducks 1, 2, 4): < 1 ng/mL | IC50 (HSV-1 (E-377)): 0.5 µg/mL (≈ 1.88 µM) | IC50 (HSV-2): 1 µg/mL (≈ 3.77 µM) | No. Dead/No. Uninfected ([4]; 3.2 mg/kg): 0/5 | No. Dead/No. Uninfected ([4]; 10 mg/kg): 0/5 | No. Dead/No. Uninfected ([4]; 32 mg/kg): 0/3 | MTT Assay ([5]; 3.2 ug/ml): 79 % of control | MTT Assay ([5]; 10 ug/ml): 76 % of control | MTT Assay ([5]; 32 ug/ml): 72 % of control | MTT Assay ([5]; 100 ug/ml): 62 % of control | VR (virus rating) [1]: 5.7 and 5.1 | VR (virus rating) [2]: 4.1 and 3.4 | IC50 (HSV-1 (123)): 1 µg/mL (≈ 3.77 µM) | IC50 [6]: 1.4 µg/mL (≈ 5.28 µM) | VR (virus rating) = GMTD of experimental/GMTD of diluent treated control ([7]; 3.2 mg/kg): 1.3 | VR (virus rating) = GMTD of experimental/GMTD of diluent treated control ([7]; 10 mg/kg): 1.6 | VR (virus rating) = GMTD of experimental/GMTD of diluent treated control ([7]; 32 mg/kg): 2.5

SMILES: Nc1ncnc2c1ncn2C1CC(CO)C1CO (stereo not shown) [Example 4C, 9-(2',3'-Bis(hydroxymethyl)cyclobutyl)adenine]
TI: therapeutic index, minimum cytotoxic drug concentration / ID50 [8]: 5.5 | MTC: minimum drug concentration causing any cytotoxicity ([9]; HSV-1 (E-377) assay): 32 µg/mL | MTC: minimum drug concentration causing any cytotoxicity ([9]; HSV-2 (MS) assay): 100 µg/mL | VR (virus rating) [2]: 1.8

IC50 ([1]; Human alphaherpesvirus 1, Vero, read-out: ID50: minimum drug concentration that inhibited the CPE by 50%): 146 µg/mL (≈ 621 µM)
SMILES: Nc1nc2c(ncn2C2CC(CO)C2)c(=O)[nH]1 (stereo not shown) [Example 5G, 9-(3'-(Hydroxymethyl)cyclobutyl)guanine]
TI: therapeutic index, minimum cytotoxic drug concentration / ID50 [8]: > 1.0 | VR (virus rating) [1]: 2.1 | MTC: minimum drug concentration causing any cytotoxicity ([9]; HSV-2 (MS) assay): > 320 µg/mL | MCC [10]: > 320 µg/mL | VR (virus rating) [2]: 0.9 | TI: therapeutic index, minimum cytotoxic drug concentration / ID50 [11]: > 2.2

IC50 (HSV-1 (E-377)): 1 µg/mL (≈ 3.98 µM) | IC50 (HSV-2): 1 µg/mL (≈ 3.98 µM) | IC50 (HSV-1 (123)): 3 µg/mL (≈ 11.9 µM)
SMILES: Nc1nc2c(ncn2C2CC(CO)C2O)c(=O)[nH]1 (stereo not shown) [Example 42P, 9-(2'-hydroxy-3'-hydroxymethyl-1'-cyclobutyl)guanine]
